Reference: the supplement of paper PMC10307832

Experiments:
Experiment in all cases: relative viability (nuclei count vs DMSO), 5 days (fraction); higher = more cells survive
Bosutinib + Navitoclax = compound: COc1cc(Nc2c(C#N)cnc3cc(OCCCN4CCN(C)CC4)c(OC)cc23)c(Cl)cc1Cl [Bosutinib] + CC1(C)CCC(c2ccc(Cl)cc2)=C(CN2CCN(c3ccc(C(=O)NS(=O)(=O)c4ccc(N[C@H](CCN5CCOCC5)CSc5ccccc5)c(S(=O)(=O)C(F)(F)F)c4)cc3)CC2)C1 [Navitoclax] (partner 0.5 µM)
Outline: (§1)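 Medians of duplicate plates are given as relative viability. That measure is the nuclei count in treated wells divided by the count in vehicle wells. Counts were taken on 4× images of lung cancer cell lines in 1536-well plates, 5 days after pin-tool dosing the day after seeding with one drug alone or a fixed anchor-drug dose plus five library-drug doses (not always all listed) in √10 steps.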

Bosutinib + Foretinib = compound: COc1cc(Nc2c(C#N)cnc3cc(OCCCN4CCN(C)CC4)c(OC)cc23)c(Cl)cc1Cl [Bosutinib] + COc1cc2c(Oc3ccc(NC(=O)C4(C(=O)Nc5ccc(F)cc5)CC4)cc3F)ccnc2cc1OCCCN1CCOCC1 [Foretinib] (partner 0.25 µM)
Outline: as §1

Bosutinib + Olaparib = compound: COc1cc(Nc2c(C#N)cnc3cc(OCCCN4CCN(C)CC4)c(OC)cc23)c(Cl)cc1Cl [Bosutinib] + O=C(c1cc(Cc2n[nH]c(=O)c3ccccc23)ccc1F)N1CCN(C(=O)C2CC2)CC1 [Olaparib] (partner 8 µM)
Outline: as §1

Bosutinib + Decitabine = compound: COc1cc(Nc2c(C#N)cnc3cc(OCCCN4CCN(C)CC4)c(OC)cc23)c(Cl)cc1Cl [Bosutinib] + Nc1ncn([C@H]2C[C@H](O)[C@@H](CO)O2)c(=O)n1 [Decitabine] (partner 2 µM)
Outline: as §1

Bosutinib + Dasatinib = compound: COc1cc(Nc2c(C#N)cnc3cc(OCCCN4CCN(C)CC4)c(OC)cc23)c(Cl)cc1Cl [Bosutinib] + Cc1nc(Nc2ncc(C(=O)Nc3c(C)cccc3Cl)s2)cc(N2CCN(CCO)CC2)n1 [Dasatinib] (partner 0.075 µM)
Outline: as §1

| Cell Line | relative viability (Bosutinib + Navitoclax; first compound 0.01 µM) | relative viability (Bosutinib + Navitoclax; first compound 0.03162 µM) | relative viability (Bosutinib + Navitoclax; first compound 0.1 µM) | relative viability (Bosutinib + Navitoclax; first compound 1 µM) | relative viability (Bosutinib + Foretinib; first compound 0.01 µM) | relative viability (Bosutinib + Foretinib; first compound 0.03162 µM) | relative viability (Bosutinib + Foretinib; first compound 0.1 µM) | relative viability (Bosutinib + Foretinib; first compound 1 µM) | relative viability (Bosutinib + Olaparib; first compound 0.01 µM) | relative viability (Bosutinib + Olaparib; first compound 0.03162 µM) | relative viability (Bosutinib + Olaparib; first compound 0.1 µM) | relative viability (Bosutinib + Olaparib; first compound 1 µM) | relative viability (Bosutinib + Decitabine; first compound 0.01 µM) | relative viability (Bosutinib + Decitabine; first compound 0.03162 µM) | relative viability (Bosutinib + Decitabine; first compound 0.1 µM) | relative viability (Bosutinib + Decitabine; first compound 1 µM) | relative viability (Bosutinib + Dasatinib; first compound 0.01 µM) | relative viability (Bosutinib + Dasatinib; first compound 0.03162 µM) | relative viability (Bosutinib + Dasatinib; first compound 0.1 µM) | relative viability (Bosutinib + Dasatinib; first compound 1 µM) |
| --- | --- | --- | --- | --- | --- | --- | --- | --- | --- | --- | --- | --- | --- | --- | --- | --- | --- | --- | --- | --- |
| EMC-BAC-2 | 1.2 | 1.1 | 1.15 | 1.15 | 1.02 | 0.981 | 1.06 | 0.768 | 0.48 | 0.525 | 0.51 | 0.621 | 0.963 | 0.967 | 0.992 | 0.988 | 0.356 | 0.325 | 0.347 | 0.328 |
| PC-14 | 0.967 | 0.975 | 1.02 | 0.474 | 0.963 | 0.975 | 0.98 | 0.255 | 0.241 | 0.342 | 0.208 | 0.21 | 0.248 | 0.226 | 0.224 | 0.174 | 0.282 | 0.239 | 0.238 | 0.0662 |
| NCI-H520 | 1.33 | 0.988 | 1.05 | 0.964 | 0.929 | 0.857 | 0.789 | 0.551 | 0.358 | 0.379 | 0.352 | 0.298 | 0.465 | 0.47 | 0.533 | 0.409 | 0.226 | 0.232 | 0.199 | 0.22 |
| NCI-H1755 | 0.971 | 1.02 | 1.04 | 0.925 | 0.974 | 0.988 | 0.983 | 0.801 | 0.874 | 0.998 | 0.861 | 0.885 | 0.639 | 0.678 | 0.713 | 0.804 | 0.427 | 0.476 | 0.438 | 0.433 |
| NCI-H2087 | 0.905 | 0.926 | 0.972 | 1.04 | 1.02 | 1.02 | 1.17 | 1.1 | 0.663 | 0.599 | 0.749 | 0.649 | 0.289 | 0.311 | 0.294 | 0.271 | 0.871 | 0.848 | 0.913 | 0.848 |
| NCI-H2023 | 1 | 1.01 | 1.03 | 0.92 | 0.874 | 0.921 | 0.81 | 0.498 | 0.493 | 0.427 | 0.461 | 0.423 | 0.233 | 0.248 | 0.216 | 0.25 | 0.683 | 0.599 | 0.65 | 0.583 |
| NCI-H2085 | 1.14 | 1.13 | 1.11 | 1.2 | 0.949 | 0.983 | 0.806 | 0.935 | 0.717 | 0.72 | 0.709 | 0.89 | 0.553 | 0.564 | 0.543 | 0.606 | 0.264 | 0.219 | 0.329 | 0.398 |
| LCLC-97TM1 | 0.541 | 0.464 | 0.595 | 0.483 | 0.902 | 0.902 | 0.904 | 0.894 | 0.41 | 0.402 | 0.372 | 0.351 | 0.249 | 0.262 | 0.215 | 0.271 | 0.849 | 0.869 | 0.851 | 0.685 |
